IC50 data for 31 compounds are collected here from patent US8143304B2, “(3-amino-1,2,3,4-tetrahydro-9 H-carbazol-9-yl)-acetic acid derivatives” (Actelion Pharmaceutical Ltd., priority 2006, dated 2012).

By IC50 is commonly meant the concentration at which inhibition is half-maximal.

In this test the target is T1, hCRTH2 receptor (Homo sapiens, UniProt Q9Y5Y4).
T1 construct: expressed in transfected cells; host or cells: clonal HEK 293 cell line (membrane preparation)
T1 sequence (Q9Y5Y4 1-395): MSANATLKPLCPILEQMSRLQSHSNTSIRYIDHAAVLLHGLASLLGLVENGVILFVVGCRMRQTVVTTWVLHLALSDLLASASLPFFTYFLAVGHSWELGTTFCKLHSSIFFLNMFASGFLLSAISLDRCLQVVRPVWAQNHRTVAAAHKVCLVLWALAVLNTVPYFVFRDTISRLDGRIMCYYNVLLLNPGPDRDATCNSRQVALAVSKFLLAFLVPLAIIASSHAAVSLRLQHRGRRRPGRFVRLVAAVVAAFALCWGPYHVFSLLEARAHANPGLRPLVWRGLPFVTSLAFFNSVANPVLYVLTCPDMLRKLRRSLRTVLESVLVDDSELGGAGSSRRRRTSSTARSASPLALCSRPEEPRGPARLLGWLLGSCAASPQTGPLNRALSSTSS
Briefly: hCRTH2 receptor membranes radioligand binding assay ({3H}-PGD2). The conditions noted are these: {3H}-PGD2 2.5 nM, membranes of HEK 293 cells expressing recombinant hCRTH2 receptor; read-out: hCRTH2 Bdg IC50. The method, then:
The biological effect of such compounds may be tested in a variety of in vitro, ex vivo and in vivo assays.
Biological Assays: Preparation of hCRTH2 Receptor Membranes and Radioligand Binding Assay:
Cells are detached from culture plates in 5 ml buffer A per plate (5 mM Tris, pH 7.4, 1 mM MgCl2, 0.1 mM PMSF, 0.1 mM phenanthroline) using a police rubber and transferred into centrifugation tubes and frozen at −80° C. After thawing, the cells are centrifuged at 500 g for 5 min and then resuspended in buffer A. Cells are then fragmented by homogenization with a Polytron cell homogenizer for 30 s. The membrane fragments are collected by centrifugation at 3000 g for 40 min and resuspended in buffer B (50 mM Tris, pH 7.4, 25 mM MgCl2, 250 mM saccharose) and aliquots are stored at […].
Binding assay is performed in a total volume of 250 μl. […] For unspecific binding, PGD2 is added to the reaction mixture at 1 μM final concentration. This binding assay mix is incubated at rt for 90 min and then filtered through a GF/C filter plate. The filter is washed three times with ice cold binding buffer C. Then, Microscint-40 (Packard, 40 μl/well) is added and the receptor bound radioactivity is quantified by scintillation counting in a “TopCount” benchtop microplate scintillation counter (Packard).

For the compound `COc1cccc2c1CC(C(=O)N[C@H]1CCc3c(c4cc(F)ccc4n3CC(=O)O)C1)CC2` (mixture of isomers) [(3S)-(6-Fluoro-3-{[(2RS)-8-methoxy-1,2,3,4-tetrahydro-naphthalene-2-carbonyl]-amino}-1,2,3,4-tetrahydro-9H-carbazol-9-yl)-acetic acid], the IC50 is 18 nM.
Regarding `COc1cccc(NC(=O)CC(Cc2ccccc2)C(=O)N[C@H]2CCc3c(c4cc(F)ccc4n3CC(=O)O)C2)c1` (mixture of isomers) [(3S)-{3-[(RS)-2-Benzyl-3-(3-methoxy-phenylcarbamoyl)-propionylamino]-6-fluoro-1,2,3,4-tetrahydro-9H-carbazol-9-yl}-acetic acid], the IC50 is 6 nM.
Turning to `O=C(O)Cn1c2c(c3cc(C(F)(F)F)ccc31)CC(NC(=O)OCc1ccccc1)CC2` (racemic), the IC50 is 26 nM.
To `O=C(O)Cn1c2c(c3cc(F)cc(Cl)c31)CC(NC(=O)CCc1ccccc1)CC2` (racemic) belongs 57 nM; to `O=C(O)Cn1c2c(c3ccccc31)C[C@H](NC(=O)c1ccccc1)CC2` [(3R)-(3-Benzoylamino-1,2,3,4-tetrahydro-9H-carbazol-9-yl)-acetic acid], 488 nM.
Turning to `O=C(O)Cn1c2c(c3ccccc31)C[C@H](NC(=O)Cc1cccs1)CC2` [(3R)-[3-(2-Thiophen-2-yl-acetylamino)-1,2,3,4-tetrahydro-9H-carbazol-9-yl]-acetic acid], the IC50 turned out to be 297 nM.
`O=C(O)Cn1c2c(c3ccccc31)C[C@H](NC(=O)CCC1CCCC1)CC2` [(3R)-[3-(3-Cyclopentyl-propionylamino)-1,2,3,4-tetrahydro-9H-carbazol-9-yl]-acetic acid]: the IC50 worked out at 400 nM.
To `O=C(O)Cn1c2c(c3ccccc31)C[C@H](NC(=O)Nc1cccc3ccccc13)CC2` [(3R)-[3-(3-Naphthalen-1-yl-ureido)-1,2,3,4-tetrahydro-9H-carbazol-9-yl]-acetic acid] belongs 152 nM; to `O=C(O)Cn1c2c(c3ccccc31)C[C@H](NC(=O)NS(=O)(=O)c1ccccc1)CC2` [(3R)-[3-(3-Phenylsulfonyl-ureido)-1,2,3,4-tetrahydro-9H-carbazol-9-yl]-acetic acid], 147 nM; to `Cc1ccc(CCC(=O)N[C@@H]2CCc3c(c4cc(F)ccc4n3CC(=O)O)C2)cc1` [(3R)-[6-Fluoro-3-(3-p-tolyl-propionylamino)-1,2,3,4-tetrahydro-9H-carbazol-9-yl]-acetic acid], 61 nM.
To `O=C(O)Cn1c2c(c3cc(F)ccc31)C[C@H](NC(=O)CCc1cccc(Cl)c1)CC2` [(3R)-{3-[3-(3-Chloro-phenyl)-propionylamino]-6-fluoro-1,2,3,4-tetrahydro-9H-carbazol-9-yl}-acetic acid] belongs 39 nM; to `CC(C)COC(=O)N[C@H]1CCc2c(c3ccccc3n2CC(=O)O)C1` [(3S)-(3-Isobutoxycarbonylamino-1,2,3,4-tetrahydro-9H-carbazol-9-yl)-acetic acid], 84 nM.
Regarding `CC(=O)N(CCc1ccccc1F)[C@H]1CCc2c(c3cc(F)ccc3n2CC(=O)O)C1` [(3S)-(3-{Acetyl-[2-(2-fluoro-phenyl)-ethyl]-amino}-6-fluoro-1,2,3,4-tetrahydro-9H-carbazol-9-yl)-acetic acid], the half-inhibitory concentration (IC50) amounted to 4 nM.
Regarding `COCCN(C(=O)CCc1ccccc1OC)[C@H]1CCc2c(c3cc(F)ccc3n2CC(=O)O)C1` [(3S)-(6-Fluoro-3-{(2-methoxy-ethyl)-[3-(2-methoxy-phenyl)-propionyl]-amino}-1,2,3,4-tetrahydro-9H-carbazol-9-yl)-acetic acid], the IC50 turned out to be 6 nM.
Take `O=C(O)Cn1c2c(c3ccccc31)C[C@@H](NC(=O)OCCOCc1ccccc1)CC2` [(3S)-[3-(2-Benzyloxy-ethoxycarbonylamino)-1,2,3,4-tetrahydro-9H-carbazol-9-yl]-acetic acid]: the half-inhibitory concentration (IC50) was 117 nM.
With `O=C(O)Cn1c2c(c3cc(F)ccc31)C[C@@H](NC(=O)CC(c1ccccc1)c1ccccc1)CC2` [(3S)-[3-(3,3-Diphenyl-propionylamino)-6-fluoro-1,2,3,4-tetrahydro-9H-carbazol-9-yl]-acetic acid], the 50% inhibitory concentration (IC50) stood at 2 nM.
Consider `O=C(O)Cn1c2c(c3cc(F)ccc31)C[C@@H](NC(=O)CCc1ccc3c(c1)OCO3)CC2` [(3S)-[3-(3-Benzo[1,3]dioxol-5-yl-propionylamino)-6-fluoro-1,2,3,4-tetrahydro-9H-carbazol-9-yl]-acetic acid], for which the half-inhibitory concentration (IC50) was determined as 15 nM.
To `O=C(O)Cn1c2c(c3cc(F)ccc31)C[C@@H](N(CC1CCCCC1)C(=O)NCc1ccccc1)CC2` [(3S)-[3-(3-Benzyl-1-cyclohexylmethyl-ureido)-6-fluoro-1,2,3,4-tetrahydro-9H-carbazol-9-yl]-acetic acid] belongs 6 nM.
For `CCCCNC(=O)N[C@H]1CCc2c(c3ccccc3n2CC(=O)O)C1` [(3S)-[3-(3-Butyl-ureido)-1,2,3,4-tetrahydro-9H-carbazol-9-yl]-acetic acid], the IC50 was 896 nM.
With `O=C(O)Cn1c2c(c3cc(F)ccc31)C[C@@H](NC(=O)COc1ccc(Cl)cc1)CC2` [(3S)-{3-[2-(4-Chloro-phenoxy)-acetylamino]-6-fluoro-1,2,3,4-tetrahydro-9H-carbazol-9-yl}-acetic acid], the IC50 is 9 nM.
On to `O=C(O)Cn1c2c(c3cc(F)ccc31)C[C@@H](NC(=O)CCc1ccc(Cl)cc1Cl)CC2` [(3S)-{3-[3-(2,4-Dichloro-phenyl)-propionylamino]-6-fluoro-1,2,3,4-tetrahydro-9H-carbazol-9-yl}-acetic acid], for which the IC50 turned out to be 16 nM.
As to `O=C(O)Cn1c2c(c3cc(F)ccc31)C[C@@H](NC(=O)CCc1cc(C(F)(F)F)ccc1C(F)(F)F)CC2` [(3S)-{3-[3-(2,5-Bis-trifluoromethyl-phenyl)-propionylamino]-6-fluoro-1,2,3,4-tetrahydro-9H-carbazol-9-yl}-acetic acid], the half-maximal inhibitory concentration (IC50) is 15 nM.
To `CC(C)(C)OC(=O)Nc1cccc(CCC(=O)N[C@H]2CCc3c(c4cc(F)ccc4n3CC(=O)O)C2)c1` [(3S)-{3-[3-(3-tert-Butoxycarbonylamino-phenyl)-propionylamino]-6-fluoro-1,2,3,4-tetrahydro-9H-carbazol-9-yl}-acetic acid] belongs 93 nM; to `O=C(O)Cn1c2c(c3cc(F)ccc31)C[C@@H](NC(=O)C1Cc3ccccc3N1)CC2` (stereo partly drawn) [(3S)-{3-[(2,3-Dihydro-1H-indole-2-carbonyl)-amino]-6-fluoro-1,2,3,4-tetrahydro-9H-carbazol-9-yl}-acetic acid], 11 nM.
For `CN(C(=O)COCc1ccccc1)[C@H]1CCc2c(c3cc(F)ccc3n2CC(=O)O)C1` [(3S)-{3-[(2-Benzyloxy-acetyl)-methyl-amino]-6-fluoro-1,2,3,4-tetrahydro-9H-carbazol-9-yl}-acetic acid], the IC50 stood at 60 nM.
To `O=C(O)Cn1c2c(c3cc(F)ccc31)C[C@@H](NC(=O)CCc1ccccc1O)CC2` [(3S)-{6-Fluoro-3-[3-(2-hydroxy-phenyl)-propionylamino]-1,2,3,4-tetrahydro-9H-carbazol-9-yl}-acetic acid] belongs 33 nM.
As for `O=C(O)Cn1c2c(c3cc(F)ccc31)C[C@@H](NC(=O)CCc1cccc(OC(F)(F)F)c1)CC2` [(3S)-{6-Fluoro-3-[3-(3-trifluoromethoxy-phenyl)-propionylamino]-1,2,3,4-tetrahydro-9H-carbazol-9-yl}-acetic acid], the IC50 was found to be 47 nM.
For the compound `CS(=O)(=O)c1ccc(CCC(=O)N[C@H]2CCc3c(c4cc(F)ccc4n3CC(=O)O)C2)cc1` [(3S)-{6-Fluoro-3-[3-(4-methanesulfonyl-phenyl)-propionylamino]-1,2,3,4-tetrahydro-9H-carbazol-9-yl}-acetic acid], the IC50 was 72 nM.
Regarding `CSc1ccc(CCC(=O)N[C@H]2CCc3c(c4cc(F)ccc4n3CC(=O)O)C2)cc1` [(3S)-{6-Fluoro-3-[3-(4-methylsulfanyl-phenyl)-propionylamino]-1,2,3,4-tetrahydro-9H-carbazol-9-yl}-acetic acid], the IC50 is 14 nM.
As to `O=C(O)Cn1c2c(c3cc(F)ccc31)C[C@@H](NC(=O)c1cc3ccccc3[nH]1)CC2` [(3S)-{6-Fluoro-3-[(1H-indole-2-carbonyl)-amino]-1,2,3,4-tetrahydro-9H-carbazol-9-yl}-acetic acid], the half-inhibitory concentration (IC50) is 824 nM.
For `C[C@@H](Cc1ccccc1)C(=O)N(CCOc1ccccc1)[C@H]1CCc2c(c3cc(F)ccc3n2CC(=O)O)C1` [(3S)-{6-Fluoro-3-[((S)-2-methyl-3-phenyl-propionyl)-(2-phenoxy-ethyl)-amino]-1,2,3,4-tetrahydro-9H-carbazol-9-yl}-acetic acid], the half-maximal inhibitory concentration (IC50) is 21 nM.
